# Assay results published in patent US20240216412A1, “OXIDIZED NICOTINAMIDE ADENINE DINUCLEOTIDE (NAD+) PRECURSOR TREATMENT FOR HEART FAILURE ALLEVIATION INDEPENDENT OF MITOCHONDRIAL PROTEIN DEACETYLATION” (University of Washington, priority 2022, published 2024).
# Experiments:
# cardiac mitochondria = test: Isolated cardiac mitochondria respiration (oxygen electrode); type: in vivo, mouse; conditions: ISO treated mice, GW6471 in addition to NR
# Procedure: Mitochondrial Isolation from cardiac tissue. Hearts were excised from mice, the aortas and atria were removed. Heart tissues were rinsed briefly in ice-cold mitochondria isolation medium (MIM) (70 mM sucrose, 220 mM mannitol, 5 mM MOPS, 1 mM EDTA, 0.025% fatty acid-free BSA, pH 7.4 with 5M KOH) to remove residual blood. Tissues were minced on ice and resuspended in fresh MIM, followed by trypsin digestion (10 ug/ml) and incubated on ice for 10 min. Trypsin digestion was stopped by the addition of trypsin inhibitor (0.5 mg/ml) and additional BSA (1 mg/ml) to MIM. The tissue pellets were resuspended in fresh MIM containing 1 mg/ml BSA, and transferred to a Teflon-glass tube and homogenized on ice with a Teflon pestle. The homogenates were centrifuged for 10 min at 800×g at 4° C. The supernatants were collected and centrifuged for 10 min at 8,000×g at 4° C. The supernatant was discarded and the mitochondrial pellets were resuspended in MIM to wash. The resuspension was centrifuged for 10 min at 8,000×g at 4° C., and the supernatant discarded. The mitochondrial pellet was resuspended to a concentrated volume for protein quantification by BCA Assay (Pierce).
# Mitochondrial respirations. Isolated mitochondria respiration experiments were performed in an Clark type oxygen electrode Oxytherm System (Hansatech Instruments) at 30C. Briefly, freshly isolated mitochondria were added to respiration buffer (125 mM KCl, 20 mM HEPES, 3 mM MgCl2, 400 μM EGTA, 5 mM KH2PO4, 0.2% BSA (fatty acid free), pH 7.2) and placed in the respiration chamber to measure baseline respiration (State 1). The change in oxygen levels following the immediate addition of substrates (pyruvate/malate (5 mM/2 mM) or palmitoylcarnitine/malate (50 μM/2 mM) (State 2) followed by the sequential addition of 2.5 mM ADP (State 3), […] Oligomycin (State 4p) and 1 μM FCCP (FCCP Max). Antimycin A (2.5 μM) was added last to measure the residual oxygen consumption not accounted for by the electron transfer chain and it was subtracted from the previous measurements.
# [1] = system: isoproterenol (ISO) induced heart failure in WT and Sirt3Ko mice; test: Isoproterenol (ISO) minipump induced heart failure, echocardiography and HW/TL; type: in vivo, mouse; conditions: 14 days of ISO, NR plus GW6471 4.5 mg/kg/day
# Procedure: Minipump implantation. Pathologic hypertrophy was induced by treating male (3-4 months old) Sirt3ko and WT mice with isoproterenol (ISO) or vehicle for 14 days. Mice with and without GW6471(4.5 mg/kg/day) were treated with NR (500 mg/kg body weight IP daily) or vehicle starting at day one after mini-pump insertion. Briefly, an incision was made in the skin between the shoulder blades. A deep subcutaneous pocket was made caudal to the incision using blunt dissection. The sterile minipump (Alzet #2002) was inserted into the pocket, and the incision was closed with wound clips. Isoproterenol (30 mg/kg/day) was delivered by osmotic minipump for 14 days. Minipumps carrying saline were used as a control.
# Transthoracic Echocardiography. Echocardiography of hearts was performed at indicated time after surgery using the VEVO 2100 high-frequency, high-resolution digital imaging system (VisualSonics) equipped with a MS400 Microscan Transducer on anesthetized mice (0.5%-2% isoflurane in 95% oxygen). Measurements were made when heart rate was >450 bpm. Cardiac function and geometry measurements were measured in parasternal short axis view. M-mode images were used for analysis and calculated by the average of at least three cardiac cycles and carried out in a blind fashion. Hearts were harvested at 12-week post-surgery for subsequent experiments and biochemical assays.
# Organ weight and histological assessment. Hearts from mice were harvested, rinsed briefly in 1×PBS, blotted dry, and weighed. Lungs from the same mice were harvested, weighed, then dried at 56 C. After 72 hours the lungs were weighed again. Heart weight (HW) and Lung weight (LW) was normalized to tibia length (TL) to assess changes in hypertrophic growth and lung edema, respectively. For histology, hearts were perfusion fixed with 10% neutral buffered formalin. Longitudinal sections of hearts were stained with Masson's Trichrome for assessment of fibrosis by the University of Washington Histology and Imaging Core.
# RXRα = test: Chromatin immunoprecipitation (ChIP) of RXRα at the Acadm promoter PPRE; type: in vivo; conditions: ISO mouse hearts, NR plus GW6471
# Procedure: Chromatin immunoprecipitation (ChIP). The EZ ChIP kit (EMD Millipore catalog #17-371) was used according to the manufacturer's protocol. Briefly, heart tissue was cut into small pieces using a razor blade in a petri dish on ice. The cubed tissue was incubated in fixation solution (1% formaldehye) in a conical tube and rotated at room temperature for 15 minutes to crosslink proteins and chromatin. The reaction was stopped by adding 0.125M Glycine for 5 min at room temperature. The contents were homogenized with a hand-held tissue homogenizer for 45 seconds then pelleted by centrifugation for 3 minutes at 1,250×g at 4C. The supernatant was discarded and the pellet was resuspended in 10 ml ice-cold PBS wash buffer followed by centrifugation at 1,250×g for 3 minutes. This was wash step was repeated on ice. The supernatant was discarded and the pellet resuspended in 5 ml chromatin prep buffer and incubated on ice for 10 minutes. The resuspended pellet was homogenized on ice with a dounce homogenizer for 30 strokes and then contents transferred to new conical tube on ice. The suspension was centrifuged 3 minutes at 1,250×g at 4C then supernatant discarded. The pellet was resuspended in 1 ml Chip buffer and transferred to new centrifuge tube then incubated on ice for 10 minutes. […] Purified chromatin was analyzed on a 1% agarose gel to determine the shearing efficiency. […]
# [2] = system: heart mRNA levels (Nppa, Ctgf, mtDNA encoded genes, PPARα/RXRα target genes); test: RT-PCR of heart transcripts and mitochondrial RNA junctions; type: in vivo, mouse; conditions: ISO treated hearts, NR in the presence of GW6471
# Procedure: RNA Extraction and Quantitative Real-Time Polymerase Chain Reaction (RT-PCR). Total RNA was isolated from frozen heart tissue using the RNeasy fibrous Kit (Qiagen). Total RNA was reverse-transcribed into first-strand cDNA using Iscript (Bio-rad) according to manufacturer's guidelines. Real Time PCR was performed using SYBR green (Bio-Rad). Results of mRNA levels were normalized to 18S rRNA levels and reported as fold-change over control.
smiles,measurement,setting,value
CCC(=O)NC[C@H](Cc1ccc(OCCc2nc(-c3ccccc3)oc2C)cc1)N/C(C)=C\C(=O)c1ccc(C(F)(F)F)cc1 [GW6471],Restoration by NR of PLC supported State 3 respiration,cardiac mitochondria,clearly blocked
same,"Protection by NR (FS %, cardiac hypertrophy)",[1],blocked
same,NR-induced increase of RXRα binding occupancy at the Acadm PPRE,RXRα,blocked
same,PPARα/RXRα target gene expression,[2],failed to preserve
